US20230054194A1, “Methods of Treating Cancer” (ARIAGEN, INC., priority 2018, published 2023)

Assays:
[1] = test system: EMT-6; assay: EMT-6 subcutaneous syngeneic breast cancer mouse model (Study 2 and Study 12), tumor growth inhibition; type: in vivo, mouse (BALB/C); settings: for TGI(%) / Tumor size (Mean ± SEM): EMT-6 model (Study 2), i.p., ARI-001 160/120 mg/kg QD × 15/6 doses, ARI-002 and ARI-003 160 mg/kg QD × 21 doses, Anti-PD-1 10 BIW × 6 doses, study end day Day 27; for anti-tumor potency of anti-PD-1 antibody combined with the compound, compared to the antibody alone or the vehicle / anti-tumor potency of the compound combined with anti-PD-1 antibody, compared to being used alone: EMT-6 syngeneic breast cancer model
Description: (§1) In this example, the in vivo anti-tumor efficacy of ARI-001, ARI-002, ARI-003, and ARI-143 and their combinations with an anti-PD-1 antibody was evaluated using a panel of twelve subcutaneous syngeneic mouse tumor models.
(§2) Eleven subcutaneous syngeneic mouse tumor models were generated by innoculating female BALB/C or C57BL/6 mice with cancer cells at their right lower or right front flank followed by randomization as detailed in Table 4 below.
(§3) A solution of a rat monoclonal anti-mouse PD-1 antibody (isotype IgG2a, κ) at a concentration of 6.61 mg/ml was obtained from BioXcell (InVivoMAb anti-mouse PD-1 (CD279), Clone RMP1-14, Cat #BE0146)) and store at 4° C. The antibody solution was diluted with PBS to obtain a 1 mg/ml dosing solution.
(§4) ARI-001, ARI-002, and ARI-003 powder was stored at −20° C. The powder of each compound was dissolved in DMSO to obtain dosing solutions at 106.7, 80, and 53.33 mg/ml for administration to mice at 160, 120, and 80 mg/kg, respectively. ARI-143 was similarly prepared.
(§5) Twelve studies using the twelve subcutaneous syngeneic mouse tumor models were performed. In each study, 80 mice were enrolled and randomly allocated to eight different study groups, with 10 mice in each study group. The mean tumor size at randomization was approximately 80-120 mm^3 (around 100 mm^3). Randomization was performed based on “Matched distribution” randomization method (StudyDirector™ software, version 3.1.399.19). […] All the drugs and vehicle controls were injected to the mice intraperitoneally.
(§6) After tumor cell inoculation, the animals were checked daily for morbidity and mortality. At the time of routine monitoring, the animals were checked for any effects of tumor growth and treatments on behavior such as mobility, food and water consumption, body weight gain/loss (body weights were measured twice or three times per week after randomization), and any other abnormalities. Mortality and observed clinical signs were recorded for individual animals. Tumor volumes were measured twice or three times weekly after randomization in two dimensions using a caliper, and the volume was expressed in mm^3 using the formula: […]
(§7) where V is tumor volume, L is tumor length (the longest tumor dimension) and W is tumor width (the longest tumor dimension perpendicular to L).
(§8) The study was terminated when the mean tumor volume (MTV) in the vehicle group reached a value of 2,000 mm^3. Tumor growth inhibition (TGI) is an indication of antitumor activity, and expressed as: […]
(§9) where T and C are the MTV (or weight) of the treated and control groups, respectively, on a given day. Statistical analysis of the difference in MTV among the groups was conducted using the data collected on the day when the MTV of the vehicle group reached the humane endpoints, so that TGI could be derived for all or most mice enrolled in the study.
(§10) Statistical analysis of differences in MTV among the groups was conducted by Independent-Samples T Test using the data collected. All data were analyzed with SPSS (Statistical Product and Service Solutions) version 18.0 (IBM, Armonk, N.Y., U.S.). P-values were rounded to three decimal places, with the exception that raw P-values less than 0.001 were stated as P<0.001. All tests were two-sided. P<0.05 was considered to be statistically significant.
FIG. 61 is a graph showing the mean tumor volume on different study days in the study groups as indicated according to Study 2 (EMT-6). The study end day was Day 27.

[2] = test system: Hepa1-6; assay: Hepa1-6 subcutaneous syngeneic liver cancer mouse model (Study 9), tumor growth inhibition; type: in vivo, mouse (C57BL/6); settings: for Tumor size / TGI(%): Hepa1-6 model, study end day Day 26; for Tumor size: Mean ± SEM, in mm³
Description: as §1, §2, §3, §4, §5, §6, §7, §8, §9, §10
FIG. 68 is a graph showing the mean tumor volume on different study days in the study groups as indicated according to Study 9 (Hepal-6). The study end day was Day 26.

[3] = test system: Renca; assay: Renca subcutaneous syngeneic kidney cancer mouse model (Study 8), tumor growth inhibition; type: in vivo, mouse (BALB/C); settings: for Tumor size / TGI(%): Renca model, study end day Day 28; for Tumor size: Mean ± SEM, in mm³; for anti-tumor potency of anti-PD-1 antibody combined with the compound, compared to the antibody alone: Renca syngeneic kidney cancer model
Description: as §1, §2, §3, §4, §5, §6, §7, §8, §9, §10
FIG. 67 is a graph showing the mean tumor volume on different study days in the study groups as indicated according to Study 8 (Renca). The study end day was Day 28.

Row | Compound | TGI(%) [1] | Tumor size (Mean ± SEM) [1] | anti-tumor potency of anti-PD-1 antibody combined with the compound, compared to the antibody alone or the vehicle [1] | anti-tumor potency of the compound combined with anti-PD-1 antibody, compared to being used alone [1] | Tumor size [2] | TGI(%) [2] | Tumor size [3] | TGI(%) [3] | anti-tumor potency of anti-PD-1 antibody combined with the compound, compared to the antibody alone [3] | anti-tumor potency of the compound combined with anti-PD-1 antibody, compared to being used alone ([2]; Hepa1-6 syngeneic liver cancer model)
1 | CCC(=O)c1csc(C(=O)c2c[nH]c3ccccc23)n1 [ARI-002] | 55% | 842.08 ± 135.38 mm^3 | statistically significant increase | statistically significant increase | 1018.26 ± 232.72 | 37% | 1101.99 ± 92.71 | 49% | statistically significant increase | 
2 | COC(=O)c1csc(C(=O)c2c[nH]c3ccccc23)n1 [ARI-001] | 53% | 871.63 ± 142.67 mm^3 | statistically significant increase | statistically significant increase | 1174.25 ± 229.74 | 27% | 1367.52 ± 118.53 | 36% | statistically significant increase | statistically significant increase
